Assay: STZ-induced type I diabetes in rats, blood glucose concentration
Type: in vivo, rat
Conditions: Sprague-Dawley male rats, single intra-peritoneal injection of 70 mg/kg STZ, seven days following the injection, tail vein blood
Excerpt: Experimental type I diabetes mellitus was induced in rats by using Streptozotocin (STZ), a N-nitroso derivative of D-glucosamine. Streptozotocin causes rapid necrosis in pancreatic β-cells of islets of Langerhans (Okamoto, 1985, Bioessays 2:15-21). STZ has been widely used to provoke insulin-dependent diabetes conditions in various laboratory animals, and animals treated with STZ are recognized in the art as a model of diabetes mellitus (Like and Rossini, 1976, Science 193:415-417).
The design of the approach to compare sera from diabetic and healthy rats is illustrated in FIG. 4. Sprague-Dawley male rats aged 10-12 weeks were randomly allocated in two groups. Rats from one group received a single intra-peritonial injection of 70 mg/kg STZ (Sigma-Aldrich, St. Louis, Mo., USA) dissolved in freshly prepared 50 mM citrate buffer (pH, 4.0). Animals in control group received an equivalent volume of the citrate buffer. Seven days following the injection, blood samples were derived from a tail vein of the control and STZ treated animals. Development of the diabetic conditions in STZ treated animals was confirmed by blood glucose concentration measurements.

Structure (SMILES): CN(N=O)C(=O)N[C@H]1C(O)O[C@H](CO)[C@@H](O)[C@@H]1O (mixture of isomers) [STZ, Streptozotocin]
- blood glucose levels (hyperglycemia): at least 300 mg/dl
